These results are taken from article PMC7598997, “Synthesis and evaluation of anticancer activities of 2- or 4-substituted 3-(N-benzyltriazolylmethyl)-13α-oestrone derivatives” (Journal of Enzyme Inhibition and Medicinal Chemistry, 2020).

Read-outs that look alike come from different tables or passages of the source.

One data set deals with A2780 cells. Kind of data set: MTT antiproliferative assay, A2780. The class given is cell-based, human. Particulars: for IC50: read-out: calculated IC50; for inhibition at 10 µM / inhibition at 30 µM: read-out: Inhibition (%) ± SEM. As to the method:
(§1) The antiproliferative properties of the newly synthesised triazoles (11a,b–15a,b) were determined on a panel of human adherent cancer cell lines of gynaecological origin. MCF-7 and MDA-MB-231 were isolated from breast cancers differing in biochemical background, while A2780 cells were isolated from ovarian cancer. The cancer selectivity of compound 12a was tested on the non-cancerous mouse embryo fibroblast cell line NIH/3T3. All cell lines were purchased from European Collection of Cell Cultures (ECCAC, Salisbury, UK). Cells were cultivated in minimal essential medium supplemented with 10% foetal bovine serum, 1% non-essential amino acids and an antibiotic–antimycotic mixture. All media and supplements were obtained from Lonza Group Ltd., Basel, Switzerland. Near-confluent cancer cells were seeded onto a 96-well microplate (5000 cells/well) and, after overnight standing, 200 µL new medium, containing the tested compounds at 10 and 30 µM, was added. After incubation for 72 h at 37 °C in humidified air containing 5% CO2, the living cells were assayed by the addition of 20 µL of 5 mg/ml 3-(4,5-dimethylthiazol-2-yl)-2,5-diphenyltetrazolium bromide (MTT) solution. MTT was converted by intact mitochondrial reductase and precipitated as purple crystals during a 4-h contact period. The medium was next removed and the precipitated formazan crystals were dissolved in 100 µL of DMSO during a 60-min period of shaking at 37 ^оC.
(§2) Finally, the reduced MTT was assayed at 545 nm, using a microplate reader utilising wells with untreated cells serving as control. […] All in vitro experiments were carried out on two microplates with at least five parallel wells. Stock solutions of the tested substances (10 mM) were prepared in DMSO. […] Cisplatin (Ebewe Pharma GmbH, Unterach, Austria) was used as positive control.

The next data set relates to MCF-7 cells. Kind of data set: MTT antiproliferative assay, MCF-7. The class given is cell-based, human. Particulars: for IC50: read-out: calculated IC50; for inhibition at 10 µM / inhibition at 30 µM: read-out: Inhibition (%) ± SEM. The method, then:
as §1, §2

For a further data set, the system named is MDA-MB-231 cells. Kind of data set: MTT antiproliferative assay, MDA-MB-231. The class given is cell-based, human. Particulars: for IC50: read-out: calculated IC50; for inhibition at 10 µM / inhibition at 30 µM: read-out: Inhibition (%) ± SEM. As to the method: as §1, §2
Setting [1] is: Homo sapiens, A2780, 10 µM, 72 h, MTT.
Setting [2] is: Homo sapiens, A2780, 30 µM, 72 h, MTT.
[3] abbreviates: Homo sapiens, MCF7, MCF-7, 10 µM, 72 h, MTT.
[4] abbreviates: Homo sapiens, MCF7, MCF-7, 30 µM, 72 h, MTT.
Setting [5] is: Homo sapiens, MDA-MB-231, 10 µM, 72 h, MTT.
The mark [6] stands for this setting: Homo sapiens, MDA-MB-231, 30 µM, 72 h, MTT.

For `N.N.[Cl][Pt][Cl]` [Cisplatin, reference compound], the “Inhibition (%) ± SEM” value with A2780 cells (A2780, 10 µM, 72 h, MTT) was determined as 83.57 ± 1.21%; in the data set on A2780 cells (A2780, 30 µM, 72 h, MTT), 95.02 ± 0.28%; with MCF-7 cells (MCF-7, 10 µM, 72 h, MTT), 53.03 ± 2.29%; with MCF-7 cells (MCF-7, 30 µM, 72 h, MTT) it was 86.90 ± 1.24%; in the data set with MDA-MB-231 cells (MDA-MB-231, 10 µM, 72 h, MTT) it was 67.51 ± 1.01%; in the data set on MDA-MB-231 cells (MDA-MB-231, 30 µM, 72 h, MTT), 87.75 ± 1.10%. For the same molecule, the IC50 in the data set on A2780 cells (A2780, 72 h, MTT) was 1.3 µM; with MCF-7 cells (MCF-7, 72 h, MTT) it was 5.78 µM; with MDA-MB-231 cells (MDA-MB-231, 72 h, MTT), 3.7 µM.
Consider `C[C@@]12CC[C@@H]3c4cc(Br)c(OCc5cn(Cc6ccccc6)nn5)cc4CC[C@H]3[C@@H]1CCC2=O` [Compound 11a, 3-[{1-benzyl-1H-1,2,3-triazol-4-yl}methoxy]-2-bromo-13α-estra-1,3,5(10)-trien-17-one], for which the inhibition at 10 µM worked out at 44.87 ± 0.09% in the data set on A2780 cells (setting [1]), 29.1 ± 1.42% in the data set on MCF-7 cells (setting [3]) and 47.5 ± 1.21% in the data set with MDA-MB-231 cells (setting [5]). Further, the figures for the inhibition at 30 µM in the data set on A2780 cells (setting [2]), in the data set with MCF-7 cells (setting [4]) and in the data set on MDA-MB-231 cells (setting [6]) were 52 ± 0.8%, 36.5 ± 1.22% and 38.2 ± 2.78%, respectively. Also, in the data set on A2780 cells (Homo sapiens, A2780, 72 h, MTT), the IC50 was 21.5 µM.
In the case of `CC(C)(C)c1ccc(Cn2cc(COc3cc4c(cc3Br)[C@H]3CC[C@@]5(C)C(=O)CC[C@H]5[C@@H]3CC4)nn2)cc1` [Compound 11b, 2-bromo-3-[{1–(4-tert-butylbenzyl)-1H-1,2,3-triazol-4-yl}methoxy]-13α-estra-1,3,5(10)-trien-17-one], the figures for the inhibition at 10 µM in the data set with A2780 cells (setting [1]), in the data set on MCF-7 cells (setting [3]) and with MDA-MB-231 cells (setting [5]) were 30.2 ± 2.35%, below 20% and 24.4 ± 2.2%, respectively. For the same molecule, the inhibition at 30 µM is 33.9 ± 2.7% in the data set with A2780 cells (setting [2]), below 20% with MCF-7 cells (setting [4]) and 23.9 ± 1.07% with MDA-MB-231 cells (setting [6]).
Consider `CC(C)(C)c1ccc(Cn2cc(COc3ccc4c(c3Br)CC[C@@H]3[C@@H]4CC[C@@]4(C)C(=O)CC[C@@H]34)nn2)cc1` [Compound 12b, 4-bromo-3-[{1–(4-tert-butylbenzyl)-1H-1,2,3-triazol-4-yl}methoxy]-13α-estra-1,3,5(10)-trien-17-one], for which the figures for the inhibition at 10 µM in the data set with A2780 cells (setting [1]), with MCF-7 cells (setting [3]) and in the data set with MDA-MB-231 cells (setting [5]) were 46.9 ± 1.75%, 23.5 ± 1.03% and below 20%, respectively. Also, the inhibition at 30 µM was 54.7 ± 0.7% in the data set on A2780 cells (setting [2]), 29.2 ± 2.94% with MCF-7 cells (setting [4]) and below 20% in the data set with MDA-MB-231 cells (setting [6]). Besides, the IC50 in the data set on A2780 cells (Homo sapiens, A2780, 72 h, MTT) is 18.3 µM.
Molecule `CCOP(=O)(OCC)c1cc2c(cc1OCc1cn(Cc3ccccc3)nn1)CC[C@@H]1[C@@H]2CC[C@@]2(C)C(=O)CC[C@@H]12` [Compound 13a, (3-[{1-benzyl-1H-1,2,3-triazol-4-yl}methoxy]-13α-estra-1,3,5(10)-trien-17-on-2-yl)-diethylphosphonate] had a melting point of 75 to 80 °C. Also, in the data set on A2780 cells (Homo sapiens, A2780, 72 h), the inhibition at 10 µM is 29.5 ± 1.86%, the inhibition at 30 µM was found to be 90.85 ± 0.4% and the half-maximal inhibitory concentration (IC50) was 13.5 µM. Moreover, in the data set with MCF-7 cells (Homo sapiens, MCF7, 72 h), the inhibition at 10 µM is below 20% and the inhibition at 30 µM is 43.5 ± 2.63%. In addition, in the data set on MDA-MB-231 cells (Homo sapiens, MDA-MB-231, 72 h), the inhibition at 10 µM was below 20% and the inhibition at 30 µM was determined as 36 ± 3.17%.
On to `CCOP(=O)(OCC)c1cc2c(cc1OCc1cn(Cc3ccc(C(C)(C)C)cc3)nn1)CC[C@@H]1[C@@H]2CC[C@@]2(C)C(=O)CC[C@@H]12` [Compound 13b, (3-[{1–(4-tert-butylbenzyl)-1H-1,2,3-triazol-4-yl}methoxy]-13α-estra-1,3,5(10)-trien-17-on-2-yl)-diethylphosphonate], for which, in the data set on A2780 cells (Homo sapiens, A2780, 72 h), the inhibition at 10 µM was determined as 95.61 ± 0.59%, the inhibition at 30 µM is 99.73 ± 0.21% and the IC50 was 2.95 µM. Moreover, in the data set with MCF-7 cells (Homo sapiens, MCF7, 72 h), the inhibition at 10 µM was 74 ± 1.88%, the inhibition at 30 µM is 95.52 ± 0.23% and the concentration for half-maximal inhibition (IC50) was 6.59 µM. Also, in the data set on MDA-MB-231 cells (Homo sapiens, MDA-MB-231, 72 h), the inhibition at 10 µM was found to be 57 ± 2.58%, the inhibition at 30 µM was 98.93 ± 0.2% and the IC50 is 9.51 µM.
Consider `C[C@@]12CC[C@@H]3c4cc(P(=O)(c5ccccc5)c5ccccc5)c(OCc5cn(Cc6ccccc6)nn5)cc4CC[C@H]3[C@@H]1CCC2=O` [Compound 14a, (3-[{1-benzyl-1H-1,2,3-triazol-4-yl}methoxy]-13α-estra-1,3,5(10)-trien-17-on-2-yl)diphenylphosphine oxide], for which the melting point is 117 to 120 °C. Further, in the data set with A2780 cells (Homo sapiens, A2780, 72 h), the inhibition at 10 µM was determined as 96 ± 1.28%, the inhibition at 30 µM is 98.06 ± 0.89% and the IC50 is 4.87 µM. In the data set on MCF-7 cells (Homo sapiens, MCF7, 72 h), the inhibition at 10 µM was 66.9 ± 1.46%, the inhibition at 30 µM came out at 92.5 ± 1.08% and the 50% inhibitory concentration (IC50) was 8.38 µM. Besides, in the data set with MDA-MB-231 cells (Homo sapiens, MDA-MB-231, 72 h), the inhibition at 10 µM worked out at 82 ± 2.49%, the inhibition at 30 µM is 98.52 ± 0.1% and the IC50 is 7.13 µM.
Regarding `CC(C)(C)c1ccc(Cn2cc(COc3cc4c(cc3P(=O)(c3ccccc3)c3ccccc3)[C@H]3CC[C@@]5(C)C(=O)CC[C@H]5[C@@H]3CC4)nn2)cc1` [Compound 14b, (3-[{1–(4-tert-butylbenzyl)-1H-1,2,3-triazol-4-yl}methoxy]-13α-estra-1,3,5(10)-trien-17-on-2-yl)diphenylphosphine oxide], the melting point fell in the range of 205 to 208 °C. In the data set with A2780 cells (Homo sapiens, A2780, 72 h), the inhibition at 10 µM is 85.52 ± 0.64%, the inhibition at 30 µM worked out at 95.82 ± 0.12% and the concentration for half-maximal inhibition (IC50) was 5.07 µM. Moreover, in the data set on MCF-7 cells (Homo sapiens, MCF7, 72 h), the inhibition at 10 µM came to 77.87 ± 0.66%, the inhibition at 30 µM is 90.69 ± 0.18% and the IC50 is 7.16 µM. For the same molecule, in the data set with MDA-MB-231 cells (Homo sapiens, MDA-MB-231, 72 h), the inhibition at 10 µM came out at 46.6 ± 1.21%, the inhibition at 30 µM stood at 71.3 ± 1.23% and the IC50 was 13.6 µM.
For `CCOP(=O)(OCC)c1c(OCc2cn(Cc3ccccc3)nn2)ccc2c1CC[C@@H]1[C@@H]2CC[C@@]2(C)C(=O)CC[C@@H]12` [Compound 15a, (3-[{1-benzyl-1H-1,2,3-triazol-4-yl}methoxy]-13α-estra-1,3,5(10)-trien-17-on-4-yl)-diethylphosphonate], the melting point was 43 to 45 °C. In addition, in the data set on A2780 cells (Homo sapiens, A2780, 72 h), the inhibition at 10 µM turned out to be 79.9 ± 1.08%, the inhibition at 30 µM was 99.5 ± 0.03% and the IC50 was 5.91 µM. Also, in the data set on MCF-7 cells (Homo sapiens, MCF7, 72 h), the inhibition at 10 µM came out at 42.4 ± 2.94%, the inhibition at 30 µM stood at 91 ± 1.49% and the IC50 was 11.4 µM. Moreover, in the data set on MDA-MB-231 cells (Homo sapiens, MDA-MB-231, 72 h), the inhibition at 10 µM was 25.7 ± 1.76%, the inhibition at 30 µM was 96.87 ± 0.28% and the IC50 was 13.2 µM.
`CCOP(=O)(OCC)c1c(OCc2cn(Cc3ccc(C(C)(C)C)cc3)nn2)ccc2c1CC[C@@H]1[C@@H]2CC[C@@]2(C)C(=O)CC[C@@H]12` [Compound 15b, (3-[{1–(4-tert-butylbenzyl)-1H-1,2,3-triazol-4-yl}methoxy]-13α-estra-1,3,5(10)-trien-17-on-4-yl)-diethylphosphonate]: the melting point is 54 to 59 °C. In the data set with A2780 cells (Homo sapiens, A2780, 72 h), the inhibition at 10 µM turned out to be 46.2 ± 1.27%, the inhibition at 30 µM is 92.05 ± 0.86% and the concentration for half-maximal inhibition (IC50) was 9.96 µM. Besides, in the data set with MCF-7 cells (Homo sapiens, MCF7, 72 h), the inhibition at 10 µM was 30.1 ± 1.53% and the inhibition at 30 µM was 77.5 ± 1.56%. In the data set with MDA-MB-231 cells (Homo sapiens, MDA-MB-231, 72 h), the inhibition at 10 µM was below 20% and the inhibition at 30 µM is 34.8 ± 2.2%.
